Assay results as given in US10564164B2, “Fluorescent probe, singlet oxygen detection agent, and singlet oxygen detection method” (Osaka University, priority 2014, dated 2020).

Assays:
[1] = Fluorescence/absorption spectrum of probe with TMPyP4 under light irradiation (photosensitised singlet oxygen); type: physicochemical; details: for increase of fluorescence intensity: 50 μM Si-DMA, 5 μM TMPyP4, 50-minute irradiation 510-550 nm, 0.07 W/cm2
Protocol: (§1) Further, in the in vitro measurement, unless otherwise specified, all bulk spectrum measurements were performed in a phosphate buffered saline (PBS) having a pH of 7.5 without Ca and Mg or spectral grade methanol. The absorption spectrum and fluorescence spectrum in the ground state were measured using the Shimadzu UV-3100 and Horiba FluoroMax-4, respectively. The bulk irradiation was performed using a xenon light source (LAX-C100, Asahi Spectra Co., Ltd.) and a wavelength filter (BA510-550, Olympus Corporation).
The concentration of Si-DMA was 50 μM, and the concentration of TMPyP4 was 5 μM. The light irradiation was performed using a 510- to 550-nm wavelength ray at an intensity of 0.07 W/cm^2 under magnetic stirring so as to generate singlet oxygen.
In FIGS. 1a) and 1c), the black arrows denote changes in absorption by peroxidation (solid line) of the anthracene structure and disaggregation of hydrogen aggregate (broken line).
Subsequently, Si-DMA was reacted with singlet oxygen, thereby forming Si-DMEP; as a result, photoinduced electron transfer was inhibited, thereby increasing the fluorescence intensity (Φfl=0.17). In methanol, the fluorescence intensity increased about 18 times (in methanol), and about 22 times (in PBS) (FIGS. 1b) and 1d); red), and a loss of the anthracene structure was observed (FIG. 1a); black arrow).

[2] = Fluorescence change after singlet oxygen generated chemically by NaOCl and H2O2; type: physicochemical; details: for fluorescence depending on concentration of singlet oxygen: NaClO and H2O2, DMSO:methanol:tris buffer 1:49:50, 5 μM
Protocol: Further, singlet oxygen was introduced into Si-DMA using a chemical catalyst. More specifically, singlet oxygen was introduced using 10 mM NaOCl and 10 mM H2O2. In this case as well, a spectral change similar to that in FIG. 1 was observed. […] The black arrow in FIG. 4a) and the red arrow in FIG. 4b) respectively show a loss of the anthracene structure, and an increase in the fluorescence of Si-DMA. The fluorescence increased about 10 times by 10-minute incubation using NaOCl and H2O2. By introducing a greater amount of singlet oxygen, more Si-DMA is expected to change into Si-DMEP.
The measurement was performed by generating singlet oxygen using NaClO and H2O2 in a solution containing DMSO:methanol:tris buffer agent=1:49:50 (Si-DMA concentration=5 μM).

HeLa cells = test: Selectivity of photosensitizer: intracellular singlet oxygen detection with Si-DMA; type: cell-based; details: 25 nM Si-DMA, 640 nm, 0.6 W/cm2
Protocol: Subsequently, a quick protocol provided by Molecular Probe® for introducing CellROX Green was followed. Using diluted Si-DMA and Si-Me, incubation was performed for 30 minutes to two hours by an experiment. To introduce a photosensitizer, 150 μg/mL of 5-aminolevulinic acid (5-ALA) or 10 LM TMPyP4 were incubated for four hours and 24 hours, respectively. As a result, as previously reported, the conversion of 5-ALA into protoporphyrin IX (PpIX) in the mitochondria was confirmed by the fluorescence luminescence of PpIX.
A KillerRed vector was expressed in accordance with a general Lipofectamine® 2000 (Invitrogen) protocol. More specifically, 2×10^5 Hela cells were subcultured in a 35-mm glass bottom dish. The cells reached about 50% confluent in the next day.
Subsequently, a mixed solution of Lipofectamine reagent and DNA vector was obtained by mixing 6 μL Lipofectamine® 2000 with 7 μL pKillerRed-dMitovector ([…], Evrogen, catalog No. FP964) in an Opti-MEM solution (Gibco). Thereafter, the resulting solution was incubated for 20 minutes at room temperature. 300 μL of the mixed solution was added to a growth medium, and incubated for 24 hours. The expression of KillerRed was confirmed by monitoring KillerRed fluorescence using a wide-view microscope. […]
Further, on the night before the treatment, 0.2×10^6 HeLa cells were seeded on a 35-mm dish, and pKillerRed-dMito vector (Evrogen) was introduced using Lipofectaimine®2000 (Invitrogen®), followed by 24-hour incubation as described above, thereby preparing HeLa cells containing […]. […] Light irradiation was performed for 30 seconds simultaneously at 0.5 W/cm^2 and 0.6 W/cm^2 using a 640-/532-nm laser (Coherent) and a wide-view fluorescence microscope system mounted in an IX81 inverted microscope (Olympus Corporation). […]
Further, in this Experiment Example, 60-second light irradiation was performed using three kinds of photosensitizers, and an average number of pseudo colors appeared in the photo and an increase thereof were measured. […]

[3] = Fluorescence quantum yield in various solvents in the absence of singlet oxygen; type: physicochemical
Protocol: as §1
As is clear from the above, fluorescence was hardly observed in the absence of singlet oxygen, (Φfl=0.01; in methanol), and the excitation of silicon-rhodamine was cancelled due to photoinduced electron transfer caused by the anthracene structure. The fluorescence in the absence of singlet oxygen also depended on the type of solvent. The fluorescence intensity decreases when a polar solvent is used, thereby inhibiting erroneous signals.

SMILES: Cc1c2ccccc2c(C)c2cc(C3=C4C=CC(=[N+](C)C)C=C4[Si](C)(C)c4cc(N(C)C)ccc43)ccc12 [Si-DMA]
- stability (color fading) under light irradiation ([1]; after 900 seconds): color fading was not observed
- increase of fluorescence intensity ([1]; in PBS): about 22 times
- increase of fluorescence intensity ([1]; in methanol): about 18 times
- change of fluorescence on light irradiation ([1]; in the absence of TMPyP4): did not increase
- increase of fluorescence ([2]; 10 mM NaOCl and 10 mM H2O2, 10-minute incubation): about 10 times
- fluorescence depending on concentration of singlet oxygen ([2]; aggregate): increase in fluorescence in proportion to the concentration of singlet oxygen
- fluorescence depending on concentration of singlet oxygen ([2]; monomer): increase in fluorescence in proportion to the concentration of singlet oxygen
- time to increase in fluorescence in the vicinity of the perinuclear region (HeLa cells; HeLa cells with PpIX (150 μg/mL 5-aminolevulinic acid, 4 h)): ≤ 10 s
- color rendering (HeLa cells; HeLa cells with PpIX as photosensitizer): clear color rendering was accomplished
- Φfl (fluorescence quantum yield) ([3]; in DMSO): 0.008
- Φfl (fluorescence quantum yield) ([3]; in acetone): 0.010
- Φfl (fluorescence quantum yield) ([3]; in benzene): 0.034
- Φfl (fluorescence quantum yield) ([3]; in chloroform): 0.010
- Φfl (fluorescence quantum yield) ([3]; in methanol): 0.01
- Φfl (fluorescence quantum yield) ([3]; in toluene): 0.030
